Laboratory results as given in patent US20080138461A1, “Lactobacillus buchneri strain LN1297 and its use to improve aerobic stability of silage” (Pioneer Hi-Bred International, Inc., priority 2006, published 2008).

Test: Aerobic stability of grass silage (method of Honig), PVC silos
Parameters: species or system ryegrass
Procedure: Second cut ryegrass was harvested at PLNC. The grass was determined to have an approximate dry matter of 35%.
Inoculation: Individual strains were supplied as fresh grown overnight culture. Cultures were adjusted to a standard concentration of 5.0×10^7 CFU/mL and applied using a syringe at a rate of 2.2 mL/kg of forage. The application rate for all strains was 1.1×10^5 CFU/g forage. Propionic acid (88%) was applied at a rate of 4.4 mL/kg fresh forage.
PVC Silos: PVC silos were filled at a packing density of 0.288 kg DM/silo (100 kg DM/m^3); approximately 0.82-0.95 kg/silo. Silos were air infused for 24 hours on days 28 and 42, and opened after 50-60 days of ensiling.
Aerobic Stability: The method of Honig (Proc. Of the Eurobac. Conf., P. Lingvall and S. Lindgren (ed.) (12-16 Aug. 1986) Swed. Univ. of Agric. Sci. Grass and Forage Report No. 3-1990. Pp. 76-81. Uppsala, Sweden) was used for measuring aerobic stability (see Table 1). ROT is defined as the time, in hours, for the silage to heat 1.7° C. after exposure to air. Cumm_DD is the integral value of the area between the time ROT is attained and the end of the experiment. Aerobic dry matter loss (% dry matter) was determined relating the increase in temperature and the time to energy losses occurring in the silage.

[1] = average across replicate studies A, B, C

SMILES: CCC(=O)O [Propionic Acid, Propionic acid]
- Aerobic deterioration versus control grass silages: significantly less aerobic deterioration
- Aerobic Dry Matter Loss, Avg. [1]: 0.43 % dry matter
- ROT (time for the silage to heat 1.7° C. after exposure to air), Avg. [1]: 127 h
- Aerobic Dry Matter Loss, replicate study A (replicate A): 0.29 % dry matter
- ROT (time for the silage to heat 1.7° C. after exposure to air), replicate study A (replicate A): 137 h
- Aerobic Dry Matter Loss, replicate study B (replicate B): 0 % dry matter
- ROT (time for the silage to heat 1.7° C. after exposure to air), replicate study B (replicate B): 160 h
- Aerobic Dry Matter Loss, replicate study C (replicate C): 1.01 % dry matter
- ROT (time for the silage to heat 1.7° C. after exposure to air), replicate study C (replicate C): 86 h
- Improvement of aerobic stability over the control (versus control): 96 h
